Reference: US11814392B2, “Chromenopyridine-based compounds and methods of making and use thereof” (Rosalind Franklin University of Medicine and Science, priority 2020, dated 2023)

How the values were obtained:
HL-60 (TB) = assay: NCI 60 five-dose screening, HL-60 (TB); type: cell-based, human; conditions: HL-60 (TB) (Leukemia), 48 h
A549/ATCC = assay: NCI 60 five-dose screening, A549/ATCC; type: cell-based, human; conditions: A549/ATCC (Non-small cell Lung), 48 h
NCI/ADR-RES = assay: NCI 60 five-dose screening, NCI/ADR-RES; type: cell-based, human; conditions: NCI/ADR-RES (Ovarian Cancer), 48 h
SN12C = assay: NCI 60 five-dose screening, SN12C; type: cell-based, human; conditions: SN12C (Renal Cancer), 48 h
HS578T = assay: NCI 60 five-dose screening, HS578T; type: cell-based, human; conditions: HS578T (Breast Cancer), 48 h
MDA-MB-468 = assay: NCI 60 five-dose screening, MDA-MB-468; type: cell-based, human
HT29 = assay: NCI 60 five-dose screening, HT29
Method: (§1) The National Cancer Institute's Developmental Therapeutic preclinical 60 human cancer cell lines were used for an in vitro screen. […] The one-dose and five-dose experiments were conducted according to standard NCI protocols.
(§2) The human tumor cell lines of the cancer screening panel are grown in RPMI 1640 medium containing 5% fetal bovine serum and 2 mM L-glutamine. For a typical screening experiment, cells are inoculated into 96 well microtiter plates in 100 μL at plating densities ranging from 5,000 to 40,000 cells/well depending on the doubling time of individual cell lines. After cell inoculation, the microtiter plates are incubated at 37° C., 5% CO2, 95% air and 100% relative humidity for 24 h prior to addition of experimental drugs.
(§3) After 24 h, two plates of each cell line are fixed in situ with TCA, to represent a measurement of the cell population for each cell line at the time of drug addition (Tz). […]
(§4) Following drug addition, the plates are incubated for an additional 48 h at 37° C., 5% CO2, 95% air, and 100% relative humidity. […] Bound stain is subsequently solubilized with 10 mM trizma base, and the absorbance is read on an automated plate reader at a wavelength of 515 nm. […] Using the seven absorbance measurements [time zero, (Tz), control growth, (C), and test growth in the presence of drug at the five concentration levels (Ti)], the percentage growth is calculated at each of the drug concentrations levels. Percentage growth inhibition is calculated as: [(Ti−Tz)/(C−Tz)]×100 for concentrations for which Ti>/=Tz [(Ti−Tz)/Tz]×100 for concentrations for which Ti<Tz.
(§5) Three dose response parameters are calculated for each experimental agent. […] The drug concentration resulting in total growth inhibition (TGI) is calculated from Ti=Tz. […] Values are calculated for each of these three parameters if the level of activity is reached; however, if the effect is not reached or is exceeded, the value for that parameter is expressed as greater or less than the maximum or minimum concentration tested.

MCF7 = assay: NCI 60 five-dose screening, MCF7
Method: as §1, §2, §3, §4, §5

TK-10 = assay: NCI 60 five-dose screening, TK-10
Method: as §1, §2, §3, §4, §5

T-47D = assay: NCI 60 five-dose screening, T-47D; conditions: 48 h
Method: as §1, §2, §3, §4, §5

HOP-62 = assay: NCI 60 five-dose screening, HOP-62
Method: (§6) The one-dose and five-dose experiments were conducted according to standard NCI protocols.
as §2
(§7) After 24 h, two plates of each cell line are fixed in situ with TCA, to represent a measurement of the cell population for each cell line at the time of drug addition (Tz). Experimental drugs are solubilized in dimethyl sulfoxide at 400-fold the desired final maximum test concentration and stored frozen prior to use. […]
as §4, §5

HOP-92 = assay: NCI 60 five-dose screening, HOP-92
Method: as §6, §2, §7, §4, §5

HCT-15 = assay: NCI 60 five-dose screening, HCT-15
Method: as §1, §2, §3, §4, §5

SF-539 = assay: NCI 60 five-dose screening, SF-539
Method: as §1, §2, §3, §4, §5

SNB-19 = assay: NCI 60 five-dose screening, SNB-19
Method: as §1, §2, §3, §4, §5

BT-549 = assay: NCI 60 five-dose screening, BT-549
Method: as §1, §2, §3, §4, §5

NCI-H23 = assay: NCI 60 five-dose screening, NCI-H23
Method: as §6, §2, §7, §4, §5

HCT-116 = assay: NCI 60 five-dose screening, HCT-116
Method: as §1, §2, §3, §4, §5

UACC-62 = assay: NCI 60 five-dose screening, UACC-62
Method: as §1, §2, §3, §4, §5

OVCAR-5 = assay: NCI 60 five-dose screening, OVCAR-5
Method: as §1, §2, §3, §4, §5

OVCAR-8 = assay: NCI 60 five-dose screening, OVCAR-8
Method: as §6, §2, §7, §4, §5

NCI-H226 = assay: NCI 60 five-dose screening, NCI-H226
Method: as §6, §2, §7, §4, §5

COLO 205 = assay: NCI 60 five-dose screening, COLO 205
Method: as §1, §2, §3, §4, §5

LOX IMVI = assay: NCI 60 five-dose screening, LOX IMVI; conditions: 48 h
Method: as §1, §2, §3, §4, §5

SK-MEL-2 = assay: NCI 60 five-dose screening, SK-MEL-2
Method: as §1, §2, §3, §4, §5

SK-MEL-5 = assay: NCI 60 five-dose screening, SK-MEL-5
Method: as §1, §2, §3, §4, §5

COc1ccc(SC2c3cc(OC)c(OC)cc3Oc3nc(N)c(C#N)c(N)c32)cc1 (stereo not shown) [Compound 1, 2,4-diamino-7,8-dimethoxy-5-((4-methoxyphenyl)thio)-5H-chromeno[2,3-b]pyridine-3-carbonitrile]
TGI (HL-60 (TB)): 1270 nM | GI50 (HL-60 (TB); Homo sapiens): 340 nM | TGI (A549/ATCC): 3840 nM | GI50 (A549/ATCC; Homo sapiens): 2010 nM | GI50 (NCI/ADR-RES; Homo sapiens): 1790 nM | TGI (NCI/ADR-RES): 3690 nM | GI50 (SN12C; Homo sapiens): 1060 nM | TGI (SN12C): 2490 nM | TGI (HS578T): 4160 nM | GI50 (HS578T; Homo sapiens, Hs-578T): 1800 nM | CC50 (MDA-MB-468; Homo sapiens, MDA-MB-468, 48 h, read-out: LC50): 5620 nM | GI50 (MDA-MB-468; Homo sapiens, MDA-MB-468 (Breast Cancer), five-dose, 48 h): 320 nM | TGI (MDA-MB-468; MDA-MB-468 (Breast Cancer), five-dose, 48 h): 1530 nM | TGI (HT29; HT29 (Colon Cancer), five-dose, 48 h): 5040 nM | GI50 (HT29; Homo sapiens, HT-29, 48 h): 2160 nM | CC50 (HT29; Homo sapiens, HT-29, 48 h, read-out: LC50): > 100000 nM | GI50 (MCF7; Homo sapiens, MCF7, 48 h): 450 nM | CC50 (MCF7; Homo sapiens, MCF7, 48 h, read-out: LC50): 8470 nM | TGI (MCF7; MCF7 (Breast Cancer), five-dose, 48 h): 2100 nM | GI50 (TK-10; Homo sapiens, TK-10, 48 h): 1630 nM | CC50 (TK-10; Homo sapiens, TK-10, 48 h, read-out: LC50): 5550 nM | TGI (TK-10; TK-10 (Renal Cancer), five-dose, 48 h): 3010 nM | GI50 (T-47D; Homo sapiens, T47D): 1300 nM | CC50 (T-47D; Homo sapiens, T47D, read-out: LC50): 8430 nM | TGI (T-47D; T-47D (Breast Cancer), five-dose): 3310 nM | TGI (HOP-62; HOP-62 (Non-small cell Lung), five-dose, 48 h): 3090 nM | GI50 (HOP-62; Homo sapiens, HOP-62, 48 h): 1700 nM | CC50 (HOP-62; Homo sapiens, HOP-62, 48 h, read-out: LC50): 5610 nM | TGI (HOP-92; HOP-92 (Non-small cell Lung), five-dose, 48 h): 2720 nM | GI50 (HOP-92; Homo sapiens, HOP-92, 48 h): 1240 nM | CC50 (HOP-92; Homo sapiens, HOP-92, 48 h, read-out: LC50): 5990 nM | TGI (HCT-15; HCT-15 (Colon Cancer), five-dose, 48 h): 2230 nM | GI50 (HCT-15; Homo sapiens, HCT-15, 48 h): 970 nM | CC50 (HCT-15; Homo sapiens, HCT-15, 48 h, read-out: LC50): 5020 nM | GI50 (SF-539; Homo sapiens, SF-539, 48 h): 1380 nM | CC50 (SF-539; Homo sapiens, SF-539, 48 h, read-out: LC50): 5200 nM | TGI (SF-539; SF-539 (CNS Cancer), five-dose, 48 h): 2680 nM | GI50 (SNB-19; Homo sapiens, SNB-19, 48 h): 1320 nM | CC50 (SNB-19; Homo sapiens, SNB-19, 48 h, read-out: LC50): 5300 nM | TGI (SNB-19; SNB-19 (CNS Cancer), five-dose, 48 h): 2640 nM | TGI (BT-549; BT-549 (Breast Cancer), five-dose, 48 h): 2190 nM | GI50 (BT-549; Homo sapiens, BT-549, 48 h): 1020 nM | CC50 (BT-549; Homo sapiens, BT-549, 48 h, read-out: LC50): 4720 nM | GI50 (NCI-H23; Homo sapiens, NCI-H23, 48 h): 1450 nM | CC50 (NCI-H23; Homo sapiens, NCI-H23, 48 h, read-out: LC50): 6250 nM | TGI (NCI-H23; NCI-H23 (Non-small cell Lung), five-dose, 48 h): 3010 nM | TGI (HCT-116; HCT-116 (Colon Cancer), five-dose, 48 h): 2160 nM | GI50 (HCT-116; Homo sapiens, HCT-116, 48 h): 680 nM | CC50 (HCT-116; Homo sapiens, HCT-116, 48 h, read-out: LC50): 5340 nM | GI50 (UACC-62; Homo sapiens, UACC-62, 48 h): 440 nM | CC50 (UACC-62; Homo sapiens, UACC-62, 48 h, read-out: LC50): 4300 nM | TGI (UACC-62; UACC-62 (Melanoma), five-dose, 48 h): 1730 nM | GI50 (OVCAR-5; Homo sapiens, OVCAR-5, 48 h): 1750 nM | CC50 (OVCAR-5; Homo sapiens, OVCAR-5, 48 h, read-out: LC50): 6660 nM | TGI (OVCAR-5; OVCAR-5 (Ovarian Cancer), five-dose, 48 h): 3390 nM | GI50 (OVCAR-8; Homo sapiens, OVCAR-8, 48 h): 1690 nM | CC50 (OVCAR-8; Homo sapiens, OVCAR-8, 48 h, read-out: LC50): 5980 nM | TGI (OVCAR-8; OVCAR-8 (Ovarian Cancer), five-dose, 48 h): 3180 nM | GI50 (NCI-H226; Homo sapiens, NCI-H226, 48 h): 1370 nM | CC50 (NCI-H226; Homo sapiens, NCI-H226, 48 h, read-out: LC50): 5230 nM | TGI (NCI-H226; NCI-H226 (Non-small cell Lung), five-dose, 48 h): 2680 nM | TGI (COLO 205; COLO 205 (Colon Cancer), five-dose, 48 h): 2650 nM | GI50 (COLO 205; Homo sapiens, COLO 205, 48 h): 1290 nM | CC50 (COLO 205; Homo sapiens, COLO 205, 48 h, read-out: LC50): 5430 nM | GI50 (LOX IMVI; Homo sapiens, LOX IMVI): 580 nM | CC50 (LOX IMVI; Homo sapiens, LOX IMVI, read-out: LC50): 4370 nM | TGI (LOX IMVI; LOX IMVI (Melanoma), five-dose): 1860 nM | GI50 (SK-MEL-2; Homo sapiens, SK-MEL-2, 48 h): 1370 nM | CC50 (SK-MEL-2; Homo sapiens, SK-MEL-2, 48 h, read-out: LC50): 5760 nM | TGI (SK-MEL-2; SK-MEL-2 (Melanoma), five-dose, 48 h): 2800 nM | GI50 (SK-MEL-5; Homo sapiens, SK-MEL-5, 48 h): 1500 nM | CC50 (SK-MEL-5; Homo sapiens, SK-MEL-5, 48 h, read-out: LC50): 5330 nM | TGI (SK-MEL-5; SK-MEL-5 (Melanoma), five-dose, 48 h): 2820 nM
